Assay results: patent US11850247B2, “Antiviral compounds” (REGENTS OF THE UNIVERSITY OF MINNESOTA, priority 2020, dated 2023)

Experiments:
HIV-1 = test: Anti-HIV-1 activity in TZM-GFP cells (viral LTR-activated GFP expression); type: cell-based; details: Human immunodeficiency virus 1, HIV-1 strain MOI=1, GFP positive cells counted after 48 hours
How it was run: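 TZM-GFP cells treated with increasing compound for 24 h, then infected with HIV-1 (MOI=1); EC50 based on inhibition of LTR-driven GFP expression versus DMSO controls. CC50 determined by XTT after 72 h continuous exposure in the same cells; duplicate, ≥2 independent experiments, variable-slope curve fit.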

[1] = target: covalently-crosslinked hexameric CA A14C/E45C/W184A/M185A (CA121) (Human immunodeficiency virus type 1 group M subtype B, UniProt P12493, A146C/E177C/M317A/W316A); test: Thermal shift assay (TSA), CA hexamer stability; type: binding, HIV-1; details: compound 20 μM, ΔTm=Tm−T0 vs DMSO
TZM-GFP cells = test: Cytotoxicity in TZM-GFP cells (XTT); type: cell-based; details: 50 μM compound
How it was run: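 TZM-GFP cells (1×10^4 per well) exposed continuously to increasing compound concentrations for 72 hours. Viable cells measured by XTT; CC50 from log(inhibitor) vs. normalized response-variable slope fit, averaged over at least two independent duplicate experiments.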

| Compound | EC50 (HIV-1) | TSA ΔTm (° C.) [1] | % viability at 50 μM (TZM-GFP cells) |
| --- | --- | --- | --- |
| Cc1[nH]c2ccccc2c1CC(=O)N[C@@H](Cc1ccccc1)c1nccn1-c1ccccc1 [Example 52, (S)-2-(2-methyl-1H-indol-3-yl)-N-(2-phenyl-1-(1-phenyl-1H-imidazol-2-yl)ethyl)acetamide] | 3.7 ± 0.8 µM | 3.9 °C | 78 ± 6% |
| Cc1[nH]c2ccccc2c1CC(=O)N[C@@H](Cc1ccccc1)c1nccn1-c1ccc(C#N)cc1 [Example 53, (S)—N-(1-(1-(4-cyanophenyl)-1H-imidazol-2-yl)-2-phenylethyl)-2-(2-methyl-1H-indol-3-yl)acetamide] | 6.6 ± 0.4 µM | 2.2 °C | 87 ± 8% |
